Experimental data from patent US8119563B2, “N-substituted azacycles” (FMC Corporation, priority 2003, dated 2012).

Tested on: tobacco budworm (Heliothis virescens [Fabricius])
Test: surface-treated diet test, insecticidal activity against tobacco budworm
Type: in vivo
Conditions: 0.25 millimoles of candidate insecticide on the surface of the diet, second instar larvae, five-day exposure; for Percent Mortality: compared to total number of insects infested; for Percent Growth Inhibition: inhibition of insect weight relative to untreated controls
Procedure: Candidate insecticides were evaluated for activity against the tobacco budworm (Heliothis virescens [Fabricius]) in a surface-treated diet test.
In this test one mL of molten (65-70° C.) wheat germ-based artificial diet was pipetted into each well of a four by six (24 well) multi-well plate (ID# 430345-15.5 mm dia.×17.6 mm deep; Corning Costar Corp., One Alewife Center, Cambridge, Mass. 02140). The diet was allowed to cool to ambient temperature before treatment with candidate insecticide.
For a determination of insecticidal activity, solutions of the candidate insecticides were prepared for testing using a Packard 204DT Multiprobe® Robotic System (Packard Instrument Company, 800 Research Parkway, Meriden, Conn. 06450), in which the robot first diluted a standard 50 millimolar DMSO solution of candidate insecticide with a 1:1 water/acetone solution (V/V) in a ratio of 1:7 stock solution to water/acetone. The robot subsequently pipetted 40 microliters of the so-prepared solution onto the surface of the diet in each of three wells in the 24 multi-well plate. The process was repeated with solutions of seven other candidate insecticides. Once treated, the contents of the multi-well plate were allowed to dry, leaving 0.25 millimoles of candidate insecticide on the surface of the diet, or a concentration of 0.25 millimolar. Appropriate untreated controls containing only DMSO on the diet surface were also included in this test.
For evaluations of the insecticidal activity of a candidate insecticide at varying rates of application, the test was established as described above using sub-multiples of the standard 50 millimolar DMSO solution of candidate insecticide. For example, the standard 50 millimolar solution was diluted by the robot with DMSO to give 5, 0.5, 0.05, 0.005, 0.0005 millimolar, or more dilute solutions of the candidate insecticide. In these evaluations there were six replicates of each rate of application placed on the surface of the diet in the 24 multi-well plate, for a total of four rates of application of candidate insecticide in each plate.
In each well of the test plate was placed one second instar tobacco budworm larvea, each weighing approximately five milligrams. After the larvae were placed in each well, the plate was sealed with clear polyfilm adhesive tape. The tape over each well was perforated to ensure an adequate air supply. The plates were then held in a growth chamber at 25° C. and 60% relative humidity for five days (light 14 hours/day).
After the five-day exposure period insecticidal activity for each rate of application of candidate insecticide was assessed as percent inhibition of insect weight relative to the weight of insects from untreated controls, and percent mortality when compared to the total number of insects infested.
The test compounds of formula I are identified by numbers that correspond to those in Table 1.

Row | SMILES | Percent Mortality | Percent Growth Inhibition
1 | CC(O)c1ccc(C(c2ccc(OC(F)(F)F)cc2)C2(O)CCN(Cc3ccc(Oc4ccccn4)cc3)CC2)cc1 (mixture of isomers) [Compound 287] | 100% | 100%
2 | CC1(C)C(C=C(Cl)C(F)(F)F)C1C(=O)[O-].OC1(C(c2ccc(C(F)(F)F)cc2)c2ccc(C(F)(F)F)cc2)CC[N+](O)(Cc2ccc(Oc3ccc(Cl)nn3)cc2)CC1 (mixture of isomers) [Compound 519] | 100% | 100%
3 | OC1(C(c2ccc(F)cc2)c2ccc(OC(F)(F)F)cc2)CCN(Cc2ccc(Oc3ccccn3)cc2)CC1 (racemic) [Compound 268] | 100% | 100%
4 | OC1(C(c2ccc(OC(F)F)cc2)c2ccc(OC(F)(F)F)cc2)CCN(Cc2ccc(Oc3ccccn3)cc2)CC1 (racemic) [Compound 269] | 100% | 100%
5 | OC(c1ccc(Cl)cc1)c1ccc(CN2CCC(O)(C(c3ccc(OC(F)(F)F)cc3)c3ccc(OC(F)(F)F)cc3)CC2)cc1 (racemic) [Compound 278] | 100% | 100%
6 | OC(c1ccc(CN2CCC(O)(C(c3ccc(OC(F)(F)F)cc3)c3ccc(OC(F)(F)F)cc3)CC2)cc1)c1ccccn1 (racemic) [Compound 282] | 100% | 100%
7 | CC(C)=CCCC(C)=CCON=Cc1ccc(C(c2ccc(OC(F)(F)F)cc2)C2(O)CCN(Cc3ccc(Oc4ccccn4)cc3)CC2)cc1 (racemic) [Compound 284] | 17% | 100%
8 | OC1(C(c2ccccc2)c2ccc(OC(F)(F)F)cc2)CCN(Cc2ccc(Oc3ccccn3)cc2)CC1 (racemic) [Compound 288] | 100% | 100%
9 | CC(=O)OC(c1ccc(Cl)cc1)c1ccc(CN2CCC(O)(C(c3ccc(OC(F)(F)F)cc3)c3ccc(OC(F)(F)F)cc3)CC2)cc1 (racemic) [Compound 289] | 100% | 100%
10 | OC1(C(c2ccc(OC(F)(F)F)cc2)c2ccc(C3OCCO3)cc2)CCN(Cc2ccc(Oc3ccccn3)cc2)CC1 (racemic) [Compound 295] | 100% | 100%
11 | OC1(C(c2ccccc2Cl)c2ccccc2Cl)CCN(Cc2ccc(Oc3ncccn3)cc2)CC1 [Compound 1] | 0% | 57%
12 | OC1(C(c2ccc(OC(F)(F)F)cc2)c2ccc(C(F)(F)F)cc2)CCN(Cc2ccc(Oc3ncccn3)cc2)CC1 (stereo not shown) [Compound 2] | 100% | 100%
13 | OC1(C(c2ccc(C(F)(F)F)cc2)c2cc(Cl)cc(Cl)c2)CCN(Cc2ccc(Oc3ncccn3)cc2)CC1 (stereo not shown) [Compound 3] | 100% | 100%
14 | OC1(C(c2ccc(Cl)c(F)c2)c2ccc(Cl)c(F)c2)CCN(Cc2ccc(Oc3ncccn3)cc2)CC1 [Compound 4] | 100% | 100%
15 | COc1cc(OC)cc(C(c2ccc(C(F)(F)F)cc2)C2(O)CCN(Cc3ccc(Oc4ncccn4)cc3)CC2)c1 (stereo not shown) [Compound 5] | 0% | 97%
16 | OC1(C(c2ccc(Cl)cc2)c2ccc(C(F)(F)F)cc2)CCN(Cc2ccc(Oc3ncccn3)cc2)CC1 (stereo not shown) [Compound 7] | 100% | 100%
17 | OC1(C(c2cccc(F)c2)c2cccc(F)c2)CCN(Cc2ccc(Oc3ncccn3)cc2)CC1 [Compound 8] | 0% | 41%
